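These data come from cells grown in 96-well plates and exposed to compound for 48 hours at five concentrations. GI50 = concentration required for 50% inhibition of growth.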 Activity calls are given as the source filed them. No stated cut-off is given here; in the data, active = GI50 up to about 1.1 µM and inactive = higher. Some results are limits rather than exact numbers.

Test systems include MDA-MB-231; OVCAR-3; SK-MEL-28; HT-29; OVCAR-4; SR; A549; NCI-H226; U-251; MDA-N; HCT-15; NCI-H522; KM12; HL-60; RPMI-8226; UACC-62; SF-295; EKVX; TK-10; IGROV-1.
Holding throughout (assay): inhibition of tumour cell growth, NCI panel, 48 h

Take `CC(=O)OCC1OC(OCCCOP(=O)(OCCC#N)OCC2OC(n3cnc4c(N)ncnc43)C(OC(=O)c3ccccc3)C2OC(=O)c2ccccc2)C(OC(C)=O)C(OC(C)=O)C1OC(C)=O` (stereo not given): the GI50 in the assay with MDA-MB-231, in the assay with OVCAR-3, in the assay with SK-MEL-28, with HT-29, in the assay on OVCAR-4 and in the assay with SR was > 100 µM (inactive) throughout. Further, the GI50 in the assay with A549 was > 100 µM (inactive); with NCI-H226 it was > 100 µM (inactive); in the assay with U-251 it was > 100 µM (inactive); in the assay on MDA-N, > 100 µM (inactive); in the assay on HCT-15, greater than 100 µM; with NCI-H522, 16.3 µM (inactive). The GI50 with KM12 was > 100 µM (inactive); in the assay on HL-60 it was > 100 µM (inactive); in the assay on RPMI-8226 it was > 64.1 µM (inactive); in the assay on UACC-62 it was > 100 µM (inactive); in the assay with SF-295 it was > 100 µM (inactive); in the assay on EKVX, > 100 µM (inactive). Further, in the assay on TK-10, the GI50 is > 100 µM (inactive).
As for `C[C@H]1C[C@H]2[C@@H]3C(C)(C)O[C@]4(O)C(=O)[C@]5(O)[C@@H](C)CC[C@H]1[C@]25C(=O)[C@]34C`, the GI50 with MDA-MB-231 was > 100 µM (inactive); with IGROV-1, 64 µM (inactive); with OVCAR-3 it was 27.4 µM (inactive); with HT-29, 26 µM (inactive); in the assay with SR, 40.1 µM (inactive); in the assay with A549 it was 41.6 µM (inactive). The GI50 in the assay with NCI-H226 is 31.3 µM (inactive); in the assay with U-251, 60.3 µM (inactive); in the assay on MDA-N it was 37.7 µM (inactive); in the assay with HCT-15, 33.9 µM; in the assay with NCI-H522, 18 µM (inactive); in the assay on KM12, 35.6 µM (inactive). The GI50 with HL-60 is 29.4 µM (inactive); with RPMI-8226, 18.1 µM (inactive); in the assay on UACC-62 it was 43.4 µM (inactive); in the assay with SF-295, 30.1 µM (inactive).
Take `CCN(CC)c1ccc(/C=C/C2=NN(c3cccc(S(=O)(=O)O)c3)C3(C2)SCC(=O)N3c2nc3ccccc3s2)cc1` (stereo not given): the GI50 is 55.1 µM (inactive) with MDA-MB-231; 41.7 µM (inactive) in the assay on IGROV-1; 80.4 µM (inactive) in the assay with SK-MEL-28; 36.6 µM (inactive) with HT-29; 23.4 µM (inactive) in the assay on OVCAR-4; 26.4 µM (inactive) with SR. Besides, the GI50 was 32.7 µM (inactive) with A549; 16.8 µM (inactive) in the assay with NCI-H226; 25.1 µM (inactive) in the assay on U-251; 39 µM (inactive) in the assay on MDA-N; 45.6 µM in the assay with HCT-15; 18.5 µM (inactive) in the assay on NCI-H522. Moreover, the GI50 in the assay with KM12 is 23.9 µM (inactive); in the assay with HL-60, 24 µM (inactive); with RPMI-8226, 17.9 µM (inactive); with UACC-62 it was 37.7 µM (inactive); in the assay on EKVX, 36 µM (inactive); in the assay with TK-10, 23.1 µM (inactive).
For the compound `O=C1C=C(c2ccccc2)O/C1=C\C(=O)c1ccc(Cl)cc1`, the GI50 was 18.1 µM (inactive) in the assay with MDA-MB-231; 17.1 µM (inactive) with IGROV-1; 22.1 µM (inactive) in the assay with OVCAR-3; 19.9 µM (inactive) in the assay with SK-MEL-28; 3.58 µM (inactive) in the assay with HT-29; 21.9 µM (inactive) with OVCAR-4. In addition, the GI50 is 11.3 µM (inactive) with SR; 17.4 µM (inactive) with NCI-H226; 16.3 µM (inactive) with U-251; 23.6 µM (inactive) with MDA-N; 17.5 µM with HCT-15; 20.7 µM (inactive) in the assay with NCI-H522. In addition, the GI50 is 34.4 µM (inactive) with KM12; 2.18 µM (inactive) in the assay with HL-60; 16.7 µM (inactive) in the assay on RPMI-8226; 15.6 µM (inactive) in the assay on UACC-62; > 100 µM (inactive) in the assay on EKVX; 20.1 µM (inactive) with TK-10.
`CCCCCCCCCCCCCOCCOCCOCCCCC(O)CCCCCCCCCC1=C[C@H](C)OC1=O` (stereo not given in full): the GI50 in the assay on MDA-MB-231 is 22.4 µM (inactive); in the assay on IGROV-1, 18.1 µM (inactive); in the assay on OVCAR-3, 18.6 µM (inactive); with SK-MEL-28, 11.4 µM (inactive); with HT-29 it was 15.6 µM (inactive); in the assay on OVCAR-4, 12.3 µM (inactive). In addition, the GI50 is 2.08 µM (inactive) in the assay on SR; 7.55 µM (inactive) in the assay with A549; 12.8 µM (inactive) in the assay on NCI-H226; 14.1 µM (inactive) in the assay with U-251; 15 µM (inactive) in the assay with MDA-N; 19.1 µM in the assay with HCT-15. Moreover, the GI50 in the assay on NCI-H522 is 0.0488 µM (active); in the assay on KM12, 19.1 µM (inactive); in the assay on HL-60, 0.356 µM (active); with RPMI-8226 it was 1.96 µM (inactive); in the assay on UACC-62, 20 µM (inactive); in the assay on SF-295, 7.21 µM (inactive). In addition, the GI50 in the assay on TK-10 was 2.94 µM (inactive).
With `O=C1c2cc(Cc3ccccc3)c(=O)c(Cc3ccccc3)cc2C(=O)c2cc(Cc3ccccc3)c(=O)c(Cc3ccccc3)cc21`, the GI50 with MDA-MB-231, in the assay with IGROV-1, in the assay with OVCAR-3, with SK-MEL-28, in the assay with HT-29 and with OVCAR-4 was > 100 µM (inactive) each time. Further, the GI50 in the assay on SR was > 100 µM (inactive); with A549, > 100 µM (inactive); with NCI-H226, > 100 µM (inactive); with U-251, > 100 µM (inactive); in the assay on MDA-N it was > 100 µM (inactive); in the assay with HCT-15, greater than 100 µM. The GI50 in the assay with NCI-H522, in the assay with KM12, in the assay on HL-60, in the assay on RPMI-8226, with SF-295 and in the assay with EKVX was > 100 µM (inactive) each time. In addition, the GI50 in the assay on TK-10 is > 100 µM (inactive).
Consider `CCN(CC)CCCNc1nc2ccccc2[n+]([O-])n1`, for which the GI50 in the assay with MDA-MB-231, with IGROV-1, with OVCAR-3, with SK-MEL-28, in the assay with HT-29 and in the assay on OVCAR-4 was > 100 µM (inactive) in each case. Besides, the GI50 is > 100 µM (inactive) with SR; > 100 µM (inactive) with A549; > 100 µM (inactive) in the assay on NCI-H226; > 100 µM (inactive) in the assay on U-251; > 100 µM (inactive) in the assay with MDA-N; greater than 100 µM in the assay with HCT-15. Also, the GI50 with NCI-H522, with KM12, in the assay on HL-60, with RPMI-8226, in the assay with UACC-62 and in the assay on SF-295 was > 100 µM (inactive) throughout. Moreover, the GI50 in the assay on TK-10 is > 100 µM (inactive).
As to `CC1(C)CCC[C@]2(C)[C@H]3[C@H](C#N)c4cc(O)c(O)cc4O[C@@]3(C)CC[C@@H]12`, the GI50 in the assay with MDA-MB-231, in the assay with IGROV-1, in the assay with OVCAR-3, in the assay on SK-MEL-28, with OVCAR-4 and with SR was > 10 µM (inactive) in each case. The GI50 is > 10 µM (inactive) with NCI-H226; > 10 µM (inactive) in the assay on U-251; > 10 µM (inactive) in the assay with MDA-N; greater than 10 µM in the assay on HCT-15; > 10 µM (inactive) with NCI-H522; > 10 µM (inactive) in the assay on KM12. Further, the GI50 in the assay on HL-60, in the assay on RPMI-8226, in the assay with SF-295, in the assay on EKVX and in the assay on TK-10 was > 10 µM (inactive) each time.
On to `O=C1c2ccccc2-c2nc(-c3cccc([N+](=O)[O-])c3)nnc21`, for which the GI50 is 16.6 µM (inactive) in the assay on MDA-MB-231; 28.8 µM (inactive) in the assay with IGROV-1; 1.82 µM (inactive) with HT-29; 15.4 µM (inactive) with OVCAR-4; 1.11 µM (active) in the assay on SR; 4.62 µM (inactive) in the assay with A549. Moreover, the GI50 was 7.91 µM (inactive) in the assay on NCI-H226; 4.5 µM (inactive) in the assay on U-251; 2.54 µM (inactive) with MDA-N; 15.7 µM in the assay on HCT-15; 26.5 µM (inactive) with NCI-H522; 8 µM (inactive) in the assay on KM12. The GI50 in the assay with HL-60 was 3.07 µM (inactive); in the assay with RPMI-8226, 2.94 µM (inactive); with UACC-62 it was 9.12 µM (inactive); with SF-295 it was 1.56 µM (inactive); in the assay with EKVX, 7.38 µM (inactive); with TK-10 it was 18.7 µM (inactive).
Turning to `O=C(CCc1cccc(O)c1)NCCc1ccc(O)cc1`, the GI50 in the assay on MDA-MB-231, in the assay with IGROV-1, in the assay on OVCAR-3, in the assay with SK-MEL-28, in the assay with HT-29 and in the assay with OVCAR-4 was > 100 µM (inactive) throughout. In addition, the GI50 is > 100 µM (inactive) in the assay on SR; > 100 µM (inactive) in the assay on A549; > 100 µM (inactive) in the assay on NCI-H226; > 100 µM (inactive) in the assay with U-251; > 100 µM (inactive) in the assay on MDA-N; greater than 100 µM in the assay with HCT-15. For the same compound, the GI50 with NCI-H522 was 17.3 µM (inactive); with KM12, > 100 µM (inactive); in the assay on HL-60, > 100 µM (inactive); in the assay on UACC-62 it was > 100 µM (inactive); in the assay on SF-295, > 100 µM (inactive); with EKVX, > 100 µM (inactive). Further, the GI50 in the assay on TK-10 was > 100 µM (inactive).
Regarding `COC(=O)c1cc(C#Cc2cc(OC)ccc2OC)ccc1OC`, the GI50 is > 100 µM (inactive) with MDA-MB-231; 53.2 µM (inactive) in the assay with IGROV-1; > 100 µM (inactive) in the assay on SK-MEL-28; 38.5 µM (inactive) with HT-29; 46.7 µM (inactive) with OVCAR-4; 26.8 µM (inactive) with SR. Besides, the GI50 with A549 is 34.8 µM (inactive); with NCI-H226, 67 µM (inactive); with U-251, 95.1 µM (inactive); in the assay on MDA-N, 30.3 µM (inactive); with HCT-15 it was 40.3 µM; in the assay on NCI-H522 it was 37.8 µM (inactive). Besides, the GI50 in the assay with KM12 was 43.9 µM (inactive); in the assay with HL-60 it was 31.1 µM (inactive); in the assay with RPMI-8226 it was 13.9 µM (inactive); with SF-295 it was < 0.01 µM (active); with EKVX, 40.9 µM (inactive); in the assay on TK-10 it was 54.6 µM (inactive).

The values above are taken from ChEMBL document CHEMBL1201862, “PubChem BioAssay data set” (2004).
